# Data from patent publication US10316080B2, “Protein-polymer-drug conjugates” (priority 2013, dated 2019).
# pIC50: −log10 of the molar value.
# Legend:
# [1] = system: LLC1 cells; assay: Cell viability assay (Cell Titer-Glo); type: cell-based; settings: 5T4 negative control cells; second of two experiments
# Protocol: (§1) PBRM-polymer-drug conjugates were evaluated for their antiproliferation properties in tumor cell lines in vitro using Cell Titer-Glo (Promega Corp). Cells were plated in black walled 96-well plate and allowed to adhere overnight at 37° C. in a humidified atmosphere of 5% CO2. SKBR3, BT474, NCI-N87 cells (HER2 expressing cells), MCF7 cells (HER2 low expressing levels cells) and JIMT1 cells (HER2 medium expression level cells) were plated at a density of 5,000 cells per well. The next day the medium was replaced with 50 μL fresh medium and 50 μL of 2× stocks of PBRM-polymer-drug conjugate, drug polymer conjugate or drug were added to appropriate wells, mixed and incubated for 72 h. Cell Titer-Glo reagent was added to the wells at room temperature and the luminescent signal was measured after 10 min using a SpectraMax M5 plate reader (Molecular Devices). Dose response curves were generated using SoftMax Pro software. IC50 values were determined from four-parameter curve fitting.
# [2] = system: NCI-N87 cells; assay: Cell viability assay (Cell Titer-Glo); type: cell-based; settings: 72 h incubation
# Protocol: as §1
# [3] = system: A431 cells; assay: Cell viability assay (Cell Titer-Glo); type: cell-based; settings: first of two experiments (first value in cell)
# Protocol: as §1
# [4] = system: JIMT1 cells; assay: Cell viability assay (Cell Titer-Glo); type: cell-based; settings: 72 h incubation; HER2 medium expression
# Protocol: as §1
# [5] = system: MCF7 cells; assay: Cell viability assay (Cell Titer-Glo); type: cell-based; settings: 72 h incubation; HER2 low expressing cells
# Protocol: as §1
# [6] = system: HL-60 cells; assay: Cell viability assay (Cell Titer-Glo); type: cell-based; settings: 72 h incubation; CD33 expressing cells
# Protocol: Dose response curves were generated using SoftMax Pro software. IC50 values were determined from four-parameter curve fitting.
# CD33 expressing cells HL-60 were passed at a density of 5,000 cells per well and treated with PBRM-polymer-drug conjugate on the same day. After 72 h incubation, the cells were analyzed using the same procedure described above.
# [7] = Mouse tissue distribution after administration of PBRM-polymer-drug conjugates; type: in vivo, mice
# Protocol: To determine the concentration of the free drug in the sample, the acidified sample was treated with acetonitrile. The free drug was extracted from the supernatant and analyzed by LC-MS/MS.
# Female CB-17 SCID mice were inoculated subcutaneously with BT474 tumors (n=4 for each group).
# At 48 hours post administration, the mice were sacrificed and the blood was collected by terminal cardiac.
# [8] = system: BT474 cells; assay: Cell viability assay (Cell Titer-Glo); type: cell-based; settings: 72 h incubation
# Protocol: as §1
# [9] = system: SKBR3 cells; assay: Cell viability assay (Cell Titer-Glo); type: cell-based; settings: 72 h incubation
# Protocol: as §1
# [10] = target: hErbB2 (Homo sapiens, UniProt P04626); assay: Ligand binding by surface plasmon resonance (SPR); settings: 25° C., immobilized hErbB2
# Protocol: The kinetic binding of the PBRM-polymer-drug conjugate to an immobilized receptor was determined by BIAcore SPR.
Compound,pIC50 [1],pIC50 [2],pIC50 [3],pIC50 [4],pIC50 [5],pIC50 [6],Metabolism of released unconjugated AF-HPA in plasma ([7]; in plasma),Metabolism of released unconjugated AF-HPA in tissue ([7]; in tissue),pIC50 [8],pIC50 [9],ka (association rate constant) [10],kd (dissociation rate constant) [10]
"CC[C@H](C)[C@@H]([C@@H](CC(=O)N1CCC[C@H]1[C@H](OC)[C@@H](C)C(=O)N[C@@H](Cc1ccccc1)C(=O)NCCCO)OC)N(C)C(=O)[C@@H](NC(=O)[C@H](C(C)C)N(C)C)C(C)C [AF-HPA, auristatin F hydroxypropyl amide]",< 7.00,9.38,9.15,9.07,8.36,8.32,not converted to AF,further metabolized to AF,9.00,–,–,–
ado-trastuzumab emtansine [Kadcyla ®],–,10.05,–,7.74,7.41,–,–,–,8.62,9.64,4.61 ± 0.2 × 10^5 M^−1s^−1,3.17 ± 0.9 × 10^−5 s^−1
